Assay results taken from the NIST ThermoML archive (doi:10.1021/je060271a).
Numbers after ± are expanded uncertainties.

Details: 283.16 K, Liquid, Vibrating tube method

CCCC(=O)OCC(COC(=O)CCC)(COC(=O)CCC)COC(=O)CCC [pentaerythritol tetrabutyrate]
Details | mass density [kg/m3]
19617 kPa | 1070.2 ± 1.3
19631 kPa | 1070.3 ± 1.3
19642 kPa | 1070.3 ± 1.3
19654 kPa | 1070.3 ± 1.3
19669 kPa | 1070.3 ± 1.3
19681 kPa | 1070.2 ± 1.3
19694 kPa | 1070.3 ± 1.3
19706 kPa | 1070.4 ± 1.3
19717 kPa | 1070.3 ± 1.3
19732 kPa | 1070.3 ± 1.3
19743 kPa | 1070.3 ± 1.3
19757 kPa | 1070.3 ± 1.3
19769 kPa | 1070.3 ± 1.3
19781 kPa | 1070.4 ± 1.3
19796 kPa | 1070.4 ± 1.3
19807 kPa | 1070.3 ± 1.3
19819 kPa | 1070.4 ± 1.3
19834 kPa | 1070.4 ± 1.3
19846 kPa | 1070.3 ± 1.3
19858 kPa | 1070.5 ± 1.3
19870 kPa | 1070.5 ± 1.3
19885 kPa | 1070.4 ± 1.3
19897 kPa | 1070.4 ± 1.3
19909 kPa | 1070.4 ± 1.3
19921 kPa | 1070.3 ± 1.3
19936 kPa | 1070.4 ± 1.3
19947 kPa | 1070.4 ± 1.3
19962 kPa | 1070.5 ± 1.3
19975 kPa | 1070.6 ± 1.3
19986 kPa | 1070.5 ± 1.3
20001 kPa | 1070.5 ± 1.3
20014 kPa | 1070.5 ± 1.3
20026 kPa | 1070.3 ± 1.3
20039 kPa | 1070.6 ± 1.3
20053 kPa | 1070.5 ± 1.3
20065 kPa | 1070.5 ± 1.3
20077 kPa | 1070.5 ± 1.3
20092 kPa | 1070.5 ± 1.3
20104 kPa | 1070.5 ± 1.3
20117 kPa | 1070.6 ± 1.3
20130 kPa | 1070.5 ± 1.3
20145 kPa | 1070.6 ± 1.3
20157 kPa | 1070.7 ± 1.3
20170 kPa | 1070.5 ± 1.3
20185 kPa | 1070.6 ± 1.3
20197 kPa | 1070.6 ± 1.3
20210 kPa | 1070.6 ± 1.3
20225 kPa | 1070.6 ± 1.3
20237 kPa | 1070.6 ± 1.3
20250 kPa | 1070.6 ± 1.3
20264 kPa | 1070.7 ± 1.3
20277 kPa | 1070.6 ± 1.3
20290 kPa | 1070.8 ± 1.3
20305 kPa | 1070.6 ± 1.3
20317 kPa | 1070.6 ± 1.3
20330 kPa | 1070.7 ± 1.3
20468 kPa | 1070.7 ± 1.3
20480 kPa | 1070.8 ± 1.3
20493 kPa | 1070.6 ± 1.3
20506 kPa | 1070.8 ± 1.3
20521 kPa | 1070.7 ± 1.3
20534 kPa | 1070.8 ± 1.3
20548 kPa | 1070.8 ± 1.3
20563 kPa | 1070.8 ± 1.3
20576 kPa | 1070.8 ± 1.3
20592 kPa | 1070.8 ± 1.3
20605 kPa | 1070.8 ± 1.3
20618 kPa | 1070.8 ± 1.3
20773 kPa | 1070.9 ± 1.3
20787 kPa | 1070.9 ± 1.3
20800 kPa | 1070.9 ± 1.3
20816 kPa | 1070.9 ± 1.3
20829 kPa | 1071 ± 1.3
20845 kPa | 1071 ± 1.3
20858 kPa | 1070.8 ± 1.3
20872 kPa | 1071 ± 1.3
20886 kPa | 1071 ± 1.3
20900 kPa | 1071 ± 1.3
20914 kPa | 1070.9 ± 1.3
20930 kPa | 1071 ± 1.3
21000 kPa | 1071 ± 1.3
21016 kPa | 1071 ± 1.3
21030 kPa | 1071 ± 1.3
21044 kPa | 1071 ± 1.3
21060 kPa | 1071 ± 1.3
21076 kPa | 1071 ± 1.3
21090 kPa | 1071.1 ± 1.3
21104 kPa | 1071.1 ± 1.3
21118 kPa | 1071.1 ± 1.3
21134 kPa | 1071 ± 1.3
21148 kPa | 1071.1 ± 1.3
21162 kPa | 1071 ± 1.3
21178 kPa | 1071.1 ± 1.3
21192 kPa | 1071 ± 1.3
21209 kPa | 1071 ± 1.3
21223 kPa | 1071.1 ± 1.3
21237 kPa | 1071.1 ± 1.3
21251 kPa | 1071.1 ± 1.3
21267 kPa | 1071.1 ± 1.3
21282 kPa | 1071.2 ± 1.3
21295 kPa | 1071.3 ± 1.3
21312 kPa | 1071.2 ± 1.3
21326 kPa | 1071.2 ± 1.3
21340 kPa | 1071.1 ± 1.3
21400 kPa | 1071.2 ± 1.3
21417 kPa | 1071.2 ± 1.3
21431 kPa | 1071.2 ± 1.3
21445 kPa | 1071.3 ± 1.3
21463 kPa | 1071.3 ± 1.3
21477 kPa | 1071.2 ± 1.3
21491 kPa | 1071.2 ± 1.3
21508 kPa | 1071.2 ± 1.3
21523 kPa | 1071.4 ± 1.3
21537 kPa | 1071.2 ± 1.3
21554 kPa | 1071.4 ± 1.3
21568 kPa | 1071.3 ± 1.3
21600 kPa | 1071.4 ± 1.3
21723 kPa | 1071.4 ± 1.3
21785 kPa | 1071.4 ± 1.3
21800 kPa | 1071.4 ± 1.3
21818 kPa | 1071.5 ± 1.3
22023 kPa | 1071.5 ± 1.3
22039 kPa | 1071.6 ± 1.3
22057 kPa | 1071.6 ± 1.3
22072 kPa | 1071.6 ± 1.3
22087 kPa | 1071.6 ± 1.3
22102 kPa | 1071.6 ± 1.3
22121 kPa | 1071.5 ± 1.3
22136 kPa | 1071.6 ± 1.3
22154 kPa | 1071.6 ± 1.3
22169 kPa | 1071.6 ± 1.3
22184 kPa | 1071.6 ± 1.3
22200 kPa | 1071.7 ± 1.3
22219 kPa | 1071.6 ± 1.3
22234 kPa | 1071.6 ± 1.3
22250 kPa | 1071.7 ± 1.3
22266 kPa | 1071.6 ± 1.3
22284 kPa | 1071.6 ± 1.3
22300 kPa | 1071.7 ± 1.3
22316 kPa | 1071.7 ± 1.3
22331 kPa | 1071.7 ± 1.3
22790 kPa | 1071.9 ± 1.3
22826 kPa | 1071.9 ± 1.3
22842 kPa | 1072 ± 1.3
22861 kPa | 1072.1 ± 1.3
22877 kPa | 1072 ± 1.3
